Data as given in ChEMBL document CHEMBL1201862, “PubChem BioAssay data set” (2004).
Calls of active or inactive are those of the source.

Tests used:
[1] = target: T1, Replicative DNA helicase DnaB (Mycobacterium tuberculosis, UniProt P9WMR3); test: DnaB intein splicing inhibitors, dose response, biochemical, cell-free fluorescence (AID 449749); format: functional
T1 sequence (P9WMR3 whole entry): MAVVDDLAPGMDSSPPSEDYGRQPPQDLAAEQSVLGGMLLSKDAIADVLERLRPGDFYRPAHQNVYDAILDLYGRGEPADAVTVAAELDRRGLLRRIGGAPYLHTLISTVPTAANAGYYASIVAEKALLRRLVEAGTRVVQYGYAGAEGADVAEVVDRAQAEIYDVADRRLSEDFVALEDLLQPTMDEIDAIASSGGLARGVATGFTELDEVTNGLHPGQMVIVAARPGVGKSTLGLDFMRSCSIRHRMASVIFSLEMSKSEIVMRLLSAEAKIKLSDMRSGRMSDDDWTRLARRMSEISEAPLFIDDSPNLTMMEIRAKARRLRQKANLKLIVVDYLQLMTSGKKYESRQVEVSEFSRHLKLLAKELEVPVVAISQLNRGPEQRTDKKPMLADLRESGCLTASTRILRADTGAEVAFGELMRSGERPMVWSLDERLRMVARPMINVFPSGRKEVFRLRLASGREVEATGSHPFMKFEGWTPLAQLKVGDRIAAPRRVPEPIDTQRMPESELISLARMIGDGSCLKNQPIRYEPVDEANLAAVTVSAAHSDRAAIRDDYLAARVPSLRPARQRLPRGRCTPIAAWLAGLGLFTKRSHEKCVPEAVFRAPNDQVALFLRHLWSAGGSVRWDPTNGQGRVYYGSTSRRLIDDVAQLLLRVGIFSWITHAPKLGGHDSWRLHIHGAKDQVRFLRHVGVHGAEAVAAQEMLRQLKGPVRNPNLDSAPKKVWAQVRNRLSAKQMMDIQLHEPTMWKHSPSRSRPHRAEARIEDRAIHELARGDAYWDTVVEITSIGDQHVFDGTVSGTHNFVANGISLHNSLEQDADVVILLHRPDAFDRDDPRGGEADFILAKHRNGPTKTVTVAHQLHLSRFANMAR

[2] = target: T2, Protein RecA (Mycobacterium tuberculosis, UniProt P9WHJ3); test: Fluorescence Cell-Free Homogeneous Dose Retest to Identify Inhibitors of RecA-Intein Splicing Activity. [Related pubchem assays (depositor defined):AID2097, AID2223, AID489010, AID492950]; format: functional
T2 sequence (P9WHJ3 whole entry): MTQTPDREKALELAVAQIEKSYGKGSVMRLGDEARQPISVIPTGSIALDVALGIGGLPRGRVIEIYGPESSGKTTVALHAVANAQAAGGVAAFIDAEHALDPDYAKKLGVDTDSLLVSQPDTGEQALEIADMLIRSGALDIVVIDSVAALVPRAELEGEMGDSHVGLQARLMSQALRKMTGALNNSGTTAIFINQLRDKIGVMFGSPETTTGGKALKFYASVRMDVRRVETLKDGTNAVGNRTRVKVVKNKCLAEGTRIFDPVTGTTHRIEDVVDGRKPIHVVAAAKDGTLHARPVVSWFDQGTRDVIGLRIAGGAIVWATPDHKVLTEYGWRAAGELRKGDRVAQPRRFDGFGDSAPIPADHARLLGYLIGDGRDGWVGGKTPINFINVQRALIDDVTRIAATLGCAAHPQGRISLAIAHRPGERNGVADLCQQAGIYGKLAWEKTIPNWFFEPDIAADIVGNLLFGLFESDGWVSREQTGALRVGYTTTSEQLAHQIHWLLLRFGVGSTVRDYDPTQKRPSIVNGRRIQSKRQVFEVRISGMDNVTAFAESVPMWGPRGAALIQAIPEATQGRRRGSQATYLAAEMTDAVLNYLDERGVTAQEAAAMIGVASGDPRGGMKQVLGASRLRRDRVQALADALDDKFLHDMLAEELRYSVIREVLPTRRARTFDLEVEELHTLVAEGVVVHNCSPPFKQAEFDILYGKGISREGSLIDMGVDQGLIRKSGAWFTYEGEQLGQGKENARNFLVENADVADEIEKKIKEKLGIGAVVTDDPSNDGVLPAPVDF

[3] = target: T3, Polyadenylate-binding protein 1 (Homo sapiens, UniProt P11940); test: PABP1 MLLE–PAM2 interaction inhibitors, dose response, miRNA deadenylation inhibitor project, biochemical, fluorescence polarization, Cy5-PAM2 peptide, secondary (AID 602260); format: functional; details: read-out: IC50_Mean
T3 sequence (P11940 whole entry): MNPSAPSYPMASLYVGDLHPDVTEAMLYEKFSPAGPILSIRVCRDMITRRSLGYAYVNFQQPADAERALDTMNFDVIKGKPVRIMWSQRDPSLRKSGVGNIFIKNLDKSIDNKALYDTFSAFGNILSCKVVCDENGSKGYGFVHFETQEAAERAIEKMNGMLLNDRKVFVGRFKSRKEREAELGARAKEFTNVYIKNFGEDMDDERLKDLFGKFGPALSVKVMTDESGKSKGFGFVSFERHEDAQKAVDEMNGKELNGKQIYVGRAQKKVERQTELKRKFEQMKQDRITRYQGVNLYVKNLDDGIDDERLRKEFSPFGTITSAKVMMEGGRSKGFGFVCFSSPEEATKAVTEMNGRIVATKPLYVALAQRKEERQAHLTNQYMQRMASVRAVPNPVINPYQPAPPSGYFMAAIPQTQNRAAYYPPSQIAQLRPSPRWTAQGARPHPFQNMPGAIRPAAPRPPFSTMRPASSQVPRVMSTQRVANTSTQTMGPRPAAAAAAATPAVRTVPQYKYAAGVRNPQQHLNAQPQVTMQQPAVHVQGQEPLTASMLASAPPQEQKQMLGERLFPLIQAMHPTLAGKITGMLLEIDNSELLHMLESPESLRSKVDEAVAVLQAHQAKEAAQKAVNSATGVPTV

[4] = target: T3, Polyadenylate-binding protein 1; test: PABP1 MLLE–PAM2 binding inhibitor potency, dose response, biochemical, fluorescence polarization, FITC-PAM2 peptide (AID 602259); format: functional; details: read-out: IC50_Mean
[5] = inhibitors of HIV Env-driven cell fusion, dose response, cherry-pick (AID 652057); format: functional, cell-based
[6] = ZM109 Env clade C HIV-1 fusion inhibitors, dose response, HeLa effector, CEM target cells, luciferase, cherry-pick (AID 652058); format: functional, cell-based
[7] = off-target signal loss in HeLa-CEM21 co-culture – HeLa F-luc CTL cells, cherry-picked, counter-screen for HIV-1 Env fusion inhibitor project, dose response (AID 652040); format: functional, cell-based;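 further: potency for signal decrease marking cytotoxic or nonspecific inhibition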
[8] = inhibitors of clade B AD8 Env fusion, dose response, cell-based, cherry-pick (AID 652062); format: functional;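 further: luciferase signal from cell-cell fusion driven by HIV-1 clade B AD8 Env; potency is for inhibitors of fusion seen as a drop in luminescence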
[9] = intracellular Trypanosoma cruzi inhibitors in host cells – cell-based, plate reader, cherry-pick samples, set 3, dose response (AID 651818); format: functional;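 further: compounds incubated with infected cells for about four days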
[10] = target: Large T antigen (Simian virus 40, UniProt P03070); format: functional, Betapolyomavirus macacae;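 further: Confirmatory-stage PubChem screen for compounds that inhibit SV40 T antigen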
Chain of Large T antigen (P03070 whole entry): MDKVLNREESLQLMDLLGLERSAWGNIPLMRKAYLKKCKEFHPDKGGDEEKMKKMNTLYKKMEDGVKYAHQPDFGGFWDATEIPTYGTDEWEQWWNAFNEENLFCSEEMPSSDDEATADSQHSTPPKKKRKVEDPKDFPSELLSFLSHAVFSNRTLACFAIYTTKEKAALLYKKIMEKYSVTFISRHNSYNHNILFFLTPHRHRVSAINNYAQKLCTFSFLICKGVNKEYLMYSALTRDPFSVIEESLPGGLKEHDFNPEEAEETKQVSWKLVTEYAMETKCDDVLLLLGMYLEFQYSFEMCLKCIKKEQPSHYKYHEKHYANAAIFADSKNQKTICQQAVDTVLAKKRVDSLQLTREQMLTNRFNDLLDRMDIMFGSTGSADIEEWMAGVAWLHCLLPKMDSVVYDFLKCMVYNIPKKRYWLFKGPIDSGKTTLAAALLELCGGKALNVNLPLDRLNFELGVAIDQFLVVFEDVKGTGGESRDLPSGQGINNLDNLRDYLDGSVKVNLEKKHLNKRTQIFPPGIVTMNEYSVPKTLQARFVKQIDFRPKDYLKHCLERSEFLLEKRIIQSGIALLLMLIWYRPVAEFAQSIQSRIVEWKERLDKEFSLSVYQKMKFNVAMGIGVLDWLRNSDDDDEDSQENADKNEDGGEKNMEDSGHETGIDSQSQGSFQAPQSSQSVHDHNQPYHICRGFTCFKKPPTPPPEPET

[11] = inhibitors of firefly luciferase expression or activity, dose response, H4 neuroglioma cells, luminescence (AID 1990); format: functional, cell-based
[12] = Luminescence Cell-Based Dose Response HTS to Identify Inhibitors of 5'UTR Stem-Loop Driven Prion Protein mRNA Translation in H4 Neuroglioblastoma Cells. [Related pubchem assays: 1827 (Project Summary), 1813 (Primary HTS)]; format: functional
[13] = inhibitors of SNCA 5'UTR-driven reporter translation, confirmation, H4 neuroglioma cells, luminescence (AID 1988); format: functional, cell-based
[14] = test system: INS1; test: beta cell apoptosis inhibitors, cytokine rescue, dose response, luminescence, retest (AID 449756); format: functional, cell-based; details: Rattus norvegicus;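 further: cell death triggered by IL-1 beta plus TNF-alpha plus IFN-gamma mixture; protective hits raise ATP signal compared with cytokine alone wells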

Question: For Cc1ccc(SC(=O)c2c(C)noc2-c2cc(C)on2)cc1, which AC50 [1] is on record?
Answer: 6.38 µM (active)

Question: What about the EC50 [2] of the same compound?
Answer: 8.74 µM (active)

Question: And the IC50 [3]?
Answer: > 66 µM (inactive)

Question: What about the IC50 [4] of the same compound?
Answer: > 66 µM (inactive)

Question: What does the source list for CC(C)(C)NC(=O)C(c1ccccc1)N(Cc1cccs1)C(=O)c1csnn1 (configuration not stated)?
Answer: AC50 [5]: 6.9 µM (active); AC50 [6]: 5.72 µM (active); AC50 [7]: 38.5 µM (active); AC50 [8]: 8.36 µM (active)

Question: With COc1ccc(NC(=O)Nc2ccc3c(c2)CC(=O)N([C@H](C)CO)C[C@@H](C)[C@@H](CN(C)Cc2ccc(-c4ccccc4)cc2)O3)cc1 as the compound, how does the AC50 [9] read?
Answer: 3.14 µM (active)

Question: Which AC50 [9] does the source give for COc1ccc(S(=O)(=O)Nc2ccc3c(c2)CC(=O)N([C@H](C)CO)C[C@@H](C)[C@@H](CN(C)S(=O)(=O)c2ccc(Cl)cc2)O3)cc1 here?
Answer: 1.97 µM (active)

Question: Which AC50 [5] does the source give for O=C(C[C@H]1CC[C@@H](NC(=O)Nc2ccccc2F)[C@@H](CO)O1)NCc1ccc(Cl)cc1 here?
Answer: 5.2 µM (active)

Question: What about the AC50 [6] of the same compound?
Answer: 5.31 µM (active)

Question: And the AC50 [8]?
Answer: 18.8 µM (active)

Question: What does the source list for CCn1c(N)c(C(=O)NC2CCCCC2)sc1=S?
Answer: IC50 [3]: > 66 µM (inactive); IC50 [4]: > 66 µM (inactive)

Question: With Cc1noc(C)c1NC(=O)Nc1cccc2c1O[C@H](CN(C)Cc1ccc(C(F)(F)F)cc1)[C@@H](C)CN([C@H](C)CO)C2=O as the compound, how does the AC50 [9] read?
Answer: 10.4 µM (active)

Question: Which IC50 [10] does the source give for Oc1ccc(/C=N/NC(=S)Nc2cccnc2)cc1 here?
Answer: 19.4 µM (active)

Question: And the IC50 [3]?
Answer: > 66 µM (inactive)

Question: And the IC50 [4]?
Answer: > 66 µM (inactive)

Question: What does the source list for NC(=S)N/N=C/c1c(O)ccc2ccccc12?
Answer: EC50 [11]: 24.5 µM (active); EC50 [12]: 22.8 µM (active); EC50 [13]: 11.6 µM (active); AC50 [14]: 1.09 µM (active); IC50 [3]: > 66 µM (inactive); IC50 [4]: > 66 µM (inactive)

Question: Which AC50 [9] does the source give for COc1ccc(NC(=O)Nc2cccc3c2O[C@H](CN(C)Cc2ccc(C(=O)Nc4ccccc4N)cc2)[C@H](C)CN([C@@H](C)CO)C3=O)cc1 here?
Answer: 5.98 µM (active)

Question: With Cc1ccc(S(=O)(=O)Nc2cccc3c2O[C@@H](CN(C)Cc2ccc(C(=O)Nc4ccccc4N)cc2)[C@@H](C)CN([C@@H](C)CO)C3=O)cc1 as the compound, how does the AC50 [9] read?
Answer: 2.17 µM (active)
